Assay results reported in paper PMC6920875, “Dithiocarbamate as a Valuable Scaffold for the Inhibition of Metallo-β-Lactmases” (Biomolecules, 2019).

Tests used:
[1] = biological target: T1, NDM-1 (Klebsiella pneumoniae, UniProt C7C422); test: Isothermal titration calorimetry (ITC) of MβL-catalysed substrate hydrolysis; format: biochemical; conditions: 150 nM enzyme, 1 mM cefazolin, inhibitor 0-200 μM, 25 °C
T1 construct: made in house; host or cells: E. coli BL21 (DE3), plasmid pET26b-NDM-1
Method: (§1) Isothermal titration calorimetry (ITC) assays were performed on a Malvern MicroCal iTC 200 instrument (Malvern Instruments, Malvern, UK) at 25 °C, by a single injection mode. During ITC experiments the reference cell was filled with degassed water. The MβLs, substrates, and inhibitor DC1 were prepared with 50 mM Tris, pH 7.0. The concentration of MβLs used was in the range 100–200 nM, concentration of substrate was 1 mM, and concentrations of DC1 were varied between 0 and 200 µM. Before starting the measurement, the enzyme was pre-incubated with different concentrations of DC1 for 5 min, and then delivered into the sample cell (210 µL). The hydrolysis reaction in the absence of inhibitors was also determined as a control. The stirring rate of the syringe was set to 750 rpm. The system was equilibrated at the desired 25 °C. […] Heat flow was recorded as a function of time. Data were collected every 1 s until the signal reached the baseline and continued to be recorded for the length of time necessary to generate the final baseline.
(§2) Isothermal titration calorimetry (ITC) was also employed, to identify the inhibition of the dithiocarbamates on MβLs and study their thermodynamic behaviour. […]

[2] = biological target: T2, L1 (Stenotrophomonas maltophilia, UniProt P52700); test: as above; format: biochemical; conditions: 100 nM enzyme, 1 mM cefazolin, inhibitor 0-200 μM, 25 °C
T2 construct: made in house; host or cells: E. coli BL21 (DE3), plasmid pET-26b-L1
Method: as §1, §2

[3] = tested on: mouse fibroblast cells (L-929); test: Cytotoxicity assay (MTT); format: cell-based; conditions: concentration as high as 250 μM, 48 h
Method: The cytotoxicity assays were performed to evaluate the toxicity of DC1, DC3, DC7 and DC9 in mouse fibroblast cells (L-929). The cells were seeded into 96-well plates at a cell density of 1.0 × 10^4 cells/well, in 100 μL of culture medium and maintained for 24 h. Then, the inhibitors with working concentrations (15.6, 31.25, 62.5, 125, 250, and 500 μM) were added to the 96-well plates and incubated for another 48 h. Three wells containing only cells were suspended in a mixture solution of 98 μL complete medium, as controls for cell viability without inhibitors. Three wells containing only the complete medium were used as blank controls. Following that, the medium was removed, and 100 μL of fresh culture medium and 10 μL MTT were added to each well. After incubation for 4 h, the trays were then vigorously shaken to solubilize the formed product, and the absorbance, at a wavelength of 490 nm, was read on a microplate reader and analyzed. All experiments were conducted in triplicate, and the data are expressed as mean ± standard deviation.
The potential toxicity of dthiocarbamates DC1, DC3, DC7 and DC9 as representatives was assayed using the mouse fibroblast cells (L929) treated with different concentrations of inhibitors (15.625, 31.25, 62.5, 125, 250 and 500 μM).

[4] = biological target: T1, NDM-1; test: Time-dependence inhibition experiment, residual activity; format: biochemical; conditions: 13 nM NDM-1 incubated with inhibitor at its IC50 for 8 h
[5] = biological target: T1, NDM-1; test: biochemical; conditions: read-out: inhibition against NDM-1
Method: (§3) The dithiocarbamates, MβLs and substrates samples were prepared with 30 mM Tris, pH 7.0. […] Enzymes and inhibitors were pre-incubated for 5 min before adding substrate. […] The IC50 values were nonlinearly fitted by plotting the average percentage inhibition against inhibitor concentration. The inhibition modes of DC1 to ImiS, NDM-1 and L1 were assayed by generating Lineweaver–Burk plots, and Ki values were obtained by fitting initial velocity versus substrate concentration at each inhibitor concentration, using SigmaPlot 12.0 (Systat Software Inc., San Jose, CA, USA).
(§4) To evaluate the inhibitory activity of the dithiocarbamates, we over-expressed and purified MβLs NDM-1, VIM-2 and IMP-1 (B1), ImiS (B2), and L1 (B3) from three subclasses as previously reported. The inhibition experiments were performed with an Agilent UV8453 spectrometer. […] The concentrations of inhibitors were varied between 0 and 200 μM. The initial reaction rates were determined in the absence and presence of inhibitors in triplicate, and the generated average values were recorded.

[6] = biological target: T2, L1; test: biochemical; conditions: read-out: inhibition against L1
Method: as §3, §4

[7] = biological target: T3, IMP-1 (Serratia marcescens, UniProt P52699); test: biochemical; conditions: read-out: inhibition against IMP-1
T3 construct: made in house; host or cells: E. coli BL21 (DE3), plasmid pET26b-IMP-1
Method: as §3, §4

T1 sequence (C7C422 29-270 limits assumed): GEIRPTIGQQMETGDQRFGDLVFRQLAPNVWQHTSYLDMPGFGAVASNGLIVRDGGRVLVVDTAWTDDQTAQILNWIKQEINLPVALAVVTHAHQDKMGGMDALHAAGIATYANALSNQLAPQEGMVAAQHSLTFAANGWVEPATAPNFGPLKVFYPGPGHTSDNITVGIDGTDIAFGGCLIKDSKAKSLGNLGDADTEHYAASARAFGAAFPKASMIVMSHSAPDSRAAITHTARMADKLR
T2 sequence (P52700 34-290): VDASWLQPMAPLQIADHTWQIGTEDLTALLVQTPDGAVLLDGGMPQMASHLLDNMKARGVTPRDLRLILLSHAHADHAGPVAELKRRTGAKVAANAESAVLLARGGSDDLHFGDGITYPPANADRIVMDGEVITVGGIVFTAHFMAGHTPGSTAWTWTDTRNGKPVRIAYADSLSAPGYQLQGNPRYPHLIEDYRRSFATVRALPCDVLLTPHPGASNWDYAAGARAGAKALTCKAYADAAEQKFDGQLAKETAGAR
T3 sequence (P52699 19-246 limits assumed): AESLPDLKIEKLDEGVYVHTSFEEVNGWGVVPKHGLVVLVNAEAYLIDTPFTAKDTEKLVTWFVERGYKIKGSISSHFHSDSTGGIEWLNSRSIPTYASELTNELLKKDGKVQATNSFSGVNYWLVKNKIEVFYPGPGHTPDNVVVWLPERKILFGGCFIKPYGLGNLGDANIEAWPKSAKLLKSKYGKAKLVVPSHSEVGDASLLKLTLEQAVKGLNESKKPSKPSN

## O=C(NNC(=S)[S][K])c1ccccc1O [DC1]
[1]
  reversibility of inhibition of NDM-1 by ITC (total heat Q constant): reversible
[2]
  reversibility of inhibition of L1 by ITC (total heat Q constant): reversible
[3]
  survival rate of L929 mouse cells: higher than 80%
[4]
  time dependence of NDM-1 inhibition (residual activity): no time-dependent inhibition
[5]
  inhibition at 20 µM: > 90%
[6]
  inhibition at 8 µM: > 90%
[7]
  inhibition at 10 µM: > 90%
